Results taken from US20030069264A1, “METHOD OF DETERMINING AND REDUCING THE RISK OF BPH-RELATED UROLOGIC EVENTS” (priority 1998, published 2003).
Entries after “also recorded” stand apart in the source; their conditions may differ.

System: men with clinical BPH
Test: four-year, double-blind placebo-controlled study of finasteride in men with clinical BPH (acute urinary retention and BPH-related surgery outcomes)
Format: in vivo, human
Conditions: for risk of AUR or BPH-related surgery / finasteride-related reduction of risk (AUR or surgery): 4 years; for finasteride-related reduction of risk (AUR or surgery): versus placebo
Procedure: A total of 3040 men with clinical BPH diagnosed on the basis of moderate-to-severe symptoms, a decreased peak urinary flow rate (less than 15 mL/sec with a voided volume of 150 mL or more) and an enlarged prostate gland by digital rectal examination (DRE) were enrolled in a four-year study comparing finasteride with placebo. Men receiving alpha blocking agents or antiandrogens, and men with a history of chronic prostatitis, recurrent urinary tract infections, prostate or bladder cancer or surgery, or a serum PSA over 10 ng/mL were excluded. Men with serum PSA concentrations between 4.0 and 9.9 ng/mL had to have a negative prostate biopsy prior to enrollment.
After a one-month single-blind placebo lead-in, men were randomly assigned to receive placebo or 5 mg of finasteride (17β-(N-tert-butylcarbamoyl)-3-oxo-4-aza-5α-androst-1-en-3-one) daily in a four year, double-blind placebo-controlled study. BPH-related outcomes including symptoms, bothersomeness, adverse events and urinary flow rates, were assessed every 4 months. Serum PSA was measured every 4 months in the first year and then every 8 months at a central laboratory. Physical examination and routine hematological and serum chemistry tests were performed yearly. Magnetic resonance imaging (MRI) was performed at baseline and subsequently yearly in a subset of 10% of patients. All MRI images were read by a central radiologist blinded to treatment allocation and time of imaging.
Acute urinary retention (AUR) and surgery for BPH were predefined secondary end-points. The endpoint committee, blinded to treatment group, reviewed all study-related documents related to episodes of acute urinary retention, and all prostate surgeries for BPH, excluding surgery for prostate cancer. The endpoint committee classified episodes of AUR as spontaneous versus precipitated (when contributing factors such as urinary tract infection, surgery anesthesia, ingestion of alpha sympathomimetic drugs or anticholinergics were identified).
Complete data on outcomes, including four-year follow-up information for men who had discontinued treatment, were available for 92% of the men randomized. In the other 8%, complete information was available until discontinuation of the medication or up to the 6-month follow-up assessment after discontinuation.
The effect of baseline serum PSA on the risk of BPH-related outcomes (developing AUR and need for BPH-related surgery), were assessed by dividing patients into tertiles of baseline serum PSA, and calculating the risk of developing an outcome by time-to-first event analysis as well as Fisher's exact test for cumulative incidence. The finasteride-related reduction in risk over 4 years was calculated using log rank analyses. All statistical tests were two-sided and a p-value of <0.05 accepted as significant.
The measurement characteristics of baseline in prediction of BPH-related outcomes were evaluated using receiver operating characteristic (ROC) curves. The area under the ROC curve (AUC) for a given population is given by the probability that a randomly chosen individual in the affected population has a higher value of the index (in this case PSA) than a randomly chosen individual in the non-affected population. The AUC's were computed using the method of Hanley and McNeil. Differences between AUC's in the finasteride and placebo group were tested using normal statistics with standard deviations computed by the same method.

[1] = 5 mg daily, four years, all patients
[2] = lowest tertile of serum PSA (0.0-1.3 ng/mL)
[3] = second tertile (serum PSA 1.4-3.2 ng/mL)

CC(C)(C)NC(=O)[C@H]1CC[C@H]2[C@@H]3CC[C@H]4NC(=O)C=C[C@]4(C)[C@H]3CC[C@]12C [finasteride, 17β-(N-tert-butylcarbamoyl)-3-oxo-4-aza-5α-androst-1-en-3-one]
incidence of BPH-related surgery [1]: 5%
incidence of precipitated AUR [1]: 2%
incidence of spontaneous AUR [1]: 1%
overall incidence of acute urinary retention (5 mg finasteride daily, four years, all patients): 4%
decrease of the risk of developing a BPH-related outcome (all subgroups examined): approximately half
increase of cumulative incidence of spontaneous AUR with increasing baseline serum PSA (finasteride-treated patients, four years, FIG. 1): nearly absent; also recorded: the risk remains unchanged over the entire serum PSA spectrum
increase of cumulative incidence of all AUR (spontaneous and precipitated combined) with increasing baseline serum PSA (finasteride-treated patients, four years, FIG. 2): nearly absent
increase of cumulative incidence of BPH-related surgery across baseline PSA values (finasteride-treated patients, four years, FIG. 3): increases only in finasteride-treated patients in men with a baseline PSA above 5.0 ng/mL
risk of AUR or BPH-related surgery (highest tertile of baseline serum PSA): 8.3%
risk of AUR or BPH-related surgery (lowest tertile of baseline serum PSA): 4.4%
4-year relative risk for finasteride versus placebo-treated patients [2]: 0.57
benefit of finasteride over placebo in the first two years (risk of AUR or surgery) [2]: minimal; also recorded: no apparent benefit
finasteride-related reduction of risk (AUR or surgery) [2]: 43%
4-year relative risk for finasteride versus placebo-treated patients [3]: 0.54
finasteride-related reduction of risk (AUR or surgery) [3]: 46%
4-year relative risk for finasteride versus placebo treated patients (third tertile of serum PSA (3.3-12 ng/mL)): 0.40
finasteride-related reduction of risk (AUR or surgery) (third/highest tertile of serum PSA (3.3-12 ng/mL)): 60%
